Earlier results as cited in patent US11160765B2, “Compositions and methods of treating fungal infections of the nails” (KBR Incorporated, priority 2018, dated 2021).

Tested on: Candida albicans

SMILES | proteinase, phospholipase secretion, and dimorphism in Candida albicans
C=CCSSCC=C [diallyl disulphide (DADS0, diallyl disulphide] | significantly inhibit
C=CCSCC=C [diallyl sulphide (DAS), diallyl sulphide] | significantly inhibit
